Laboratory results reported in EPA's ToxRefDB 2.

Experiments:
rat [1] = conditions: Sub-acute repeat dose toxicity, sprague dawley, Oral, Gavage/Intubation, dose end: 1 month, group: systemic
primate = conditions: Sub-acute repeat dose toxicity, macaque, Oral, Gavage/Intubation, dose end: 28 day, group: systemic
mouse [2] = conditions: Subchronic oral toxicity in rodents, cd1, Gavage/Intubation, dose end: 3 month, group: systemic, systemic / pathology microscopic / gallbladder / degeneration + systemic / pathology microscopic / gallbladder / hyperplasia + systemic / …
mouse [3] = conditions: Combined chronic toxicity/carcinogenicity, b6c3f1, Oral, Feed, dose end: 106 week, group: systemic
rat [4] = conditions: Combined chronic toxicity/carcinogenicity; fischer; Oral; Feed; dose end: 105 week; group: systemic; systemic / in life observation / body weight / body weight + systemic / pathology microscopic / kidney / nephropathy + systemic / pathology …
rat [5] = conditions: Subchronic oral toxicity in rodents, sprague dawley, Gavage/Intubation, dose end: 90 day, group: systemic
rabbit = conditions: Prenatal developmental toxicity study, new zealand white, Oral, Gavage/Intubation, dose end: 28 GD
rat [6] = conditions: Subchronic dermal toxicity, sprague dawley, Topical, dose end: 90 day, group: systemic, systemic / in life observation / clinical signs / desquamation + systemic / in life observation / clinical signs / erythema + systemic / in …
rat [7] = conditions: Multigenerational reproductive toxicity study, sprague dawley, Oral, Gavage/Intubation, dose end: 1 generation
rat [8] = conditions: Sub-acute repeat dose toxicity; sprague dawley; Oral; Gavage/Intubation; dose end: 1 week; group: systemic; systemic / in life observation / food consumption / food consumption + systemic / in life observation / water consumption / water …
rat [9] = conditions: Subchronic oral toxicity in rodents, other, Feed, dose end: 13 week, group: systemic
rat [10] = conditions: Prenatal developmental toxicity study, other, Oral, Gavage/Intubation, dose end: 15 GD
[11] = systemic / clinical chemistry / alanine aminotransferase (alt/sgpt) / alanine aminotransferase (alt/sgpt) + systemic / clinical chemistry / …
[12] = systemic / clinical chemistry / albumin / albumin + systemic / clinical chemistry / calcium / calcium + systemic / in life observation / …
[13] = systemic / in life observation / body weight / body weight
[14] = systemic / in life observation / body weight / body weight + systemic / pathology microscopic / blood / lymphoma nos + systemic / pathology …
[15] = systemic / pathology microscopic / stomach / hyperplasia + systemic / in life observation / clinical signs / abnormal respiratory sounds + …
[16] = systemic / pathology microscopic / stomach / hyperplasia + systemic / pathology microscopic / stomach / edema + systemic / pathology …
[17] = group: developmental, developmental / developmental malformation / bone / malpositioned + developmental / developmental malformation / bone / supernumerary + …
[18] = group: maternal, systemic / in life observation / body weight / body weight gain + systemic / in life observation / food consumption / food consumption
[19] = group: maternal, systemic / in life observation / body weight / body weight gain + systemic / in life observation / food consumption / food consumption + …
[20] = group: parental, systemic / in life observation / clinical signs / fur (altered appearance) + systemic / in life observation / clinical signs / hunched …
[21] = group: reproductive, reproductive / offspring survival early / dead fetuses / dead fetuses
[22] = systemic / in life observation / body weight / body weight + systemic / in life observation / food consumption / food efficiency + systemic…
[23] = group: developmental, developmental / developmental malformation / bone / fused + developmental / developmental malformation / bone / incomplete ossification

SMILES: OCC(CO)n1cnc(-c2ccc(F)cc2)c1-c1ccnc(Oc2ccccc2)n1
- LOAEL (rat [1]; [11]): > 2000 mg/kg/day
- NEL (rat [1]; [11]): 3 mg/kg/day
- NOAEL (rat [1]; [11]): ≥ 2000 mg/kg/day
- LEL (rat [1]; systemic / in life observation / body weight / body weight gain): 30 mg/kg/day
- LOAEL (primate; [12]): > 2000 mg/kg/day
- NEL (primate; [12]): 10 mg/kg/day
- NOAEL (primate; [12]): ≥ 2000 mg/kg/day
- LEL (primate; systemic / clinical chemistry / calcium / calcium + systemic / in life observation / clinical signs / feces, discoloration + systemic / …): 300 mg/kg/day
- LEL (mouse [2]): 30 mg/kg/day
- LOAEL (mouse [2]): > 300 mg/kg/day
- NEL (mouse [2]): < 30 mg/kg/day
- NOAEL (mouse [2]): ≥ 300 mg/kg/day

SMILES: c1ccc2n[nH]nc2c1 [1,2,3-Benzotriazole]
- LOAEL (mouse [3]; [13]): 1760 mg/kg/day
- NOAEL (mouse [3]; [13]): < 1760 mg/kg/day
- LEL (mouse [3]; [14]): 1760 mg/kg/day
- NEL (mouse [3]; [14]): < 1760 mg/kg/day
- LEL (rat [4]): 335 mg/kg/day
- LOAEL (rat [4]): 335 mg/kg/day
- NEL (rat [4]): < 335 mg/kg/day
- NOAEL (rat [4]): < 335 mg/kg/day

SMILES: O=S1CCON=C1c1cc2ccccc2s1 (configuration not stated) [Bethoxazin]
- NEL (rat [5]; [15]): 1.25 mg/kg/day
- NOAEL (rat [5]; [15]): 1.25 mg/kg/day
- LEL (rat [5]; [16]): 5 mg/kg/day
- LOAEL (rat [5]; [16]): 5 mg/kg/day
- LOAEL (rabbit; [17]): 30 mg/kg/day
- NEL (rabbit; [17]): 3 mg/kg/day
- LEL (rabbit; group: developmental, developmental / developmental malformation / bone / supernumerary): 10 mg/kg/day
- LOAEL (rabbit; [18]): 30 mg/kg/day
- LEL (rabbit; [19]): 30 mg/kg/day
- LEL (rat [6]): 0.1 mg/kg/day
- LOAEL (rat [6]): 0.1 mg/kg/day
- NEL (rat [6]): < 0.1 mg/kg/day
- NOAEL (rat [6]): < 0.1 mg/kg/day
- LEL (rat [7]; [20]): 10 mg/kg/day
- LOAEL (rat [7]; [20]): 70 mg/kg/day
- NEL (rat [7]; [20]): < 10 mg/kg/day
- NOAEL (rat [7]; [20]): 30 mg/kg/day
- LEL (rat [7]; [21]): 70 mg/kg/day
- LOAEL (rat [7]; [21]): > 70 mg/kg/day
- NEL (rat [7]; [21]): 30 mg/kg/day
- NOAEL (rat [7]; [21]): ≥ 70 mg/kg/day
- LEL (rat [8]): 50 mg/kg/day
- LOAEL (rat [8]): 50 mg/kg/day
- NEL (rat [8]): < 50 mg/kg/day
- NOAEL (rat [8]): < 50 mg/kg/day

SMILES: CC(C)Nc1nc(N)nc(Cl)n1 [Deethylatrazine]
- LOAEL (rat [9]; systemic / in life observation / body weight / body weight + systemic / in life observation / food consumption / food efficiency): 35.1 mg/kg/day
- LEL (rat [9]; [22]): 35.1 mg/kg/day
- NEL (rat [9]; [22]): 3.2 mg/kg/day
- NOAEL (rat [9]; [22]): 3.2 mg/kg/day
- LEL (rat [10]; [23]): 100 mg/kg/day
- LOAEL (rat [10]; [23]): 100 mg/kg/day
- NEL (rat [10]; [23]): 25 mg/kg/day
- NOAEL (rat [10]; [23]): 25 mg/kg/day
- LEL (rat [10]; [18]): 25 mg/kg/day
- LOAEL (rat [10]; [18]): 25 mg/kg/day
- NEL (rat [10]; [19]): 5 mg/kg/day
- NOAEL (rat [10]; [19]): 5 mg/kg/day
